Measured values reported in patent US11572475B2, “Carbocyanines for G-quadruplex DNA stabilization and telomerase inhibition” (GEORGIA STATE UNIVERSITY RESEARCH FOUNDATION, INC., priority 2011, dated 2023).

Columns and labels:
[1] = system: Human Telomere (HT) quadruplex DNA; test: Thermal melting UV-Vis absorbance, quadruplex DNA; assay type: binding; conditions: for Change in Thermal Melting Points, Human Telomere (HT), 1:1: ratio 1:1 (R); for Change in Thermal Melting Points, Human Telomere (HT), 2:1: ratio 2:1 (R); for Change in Thermal Melting Points, Human Telomere (HT), 4:1: ratio 4:1 (R); for Change in Thermal Melting Points, Human Telomere (HT), 6:1: ratio 6:1 (R); for Selectivity for quadruplex over duplex DNA by thermal melting: quadruplex vs duplex
Description: (§1) Three DNA sequences were used: Human Telomere (HTelo), c-myc, and Duplex (Integrated DNA Technologies, San Diego, Calif.). The sequences are shown below:
The concentration of each DNA sample mixed with MilliQ water was determined by UV-Vis at 260 nm using their extinction coefficients. Quadruplexes from Human Telomere (Tel22) and c-myc were prepared by heating the corresponding oligonucleotides at 90° C. for 5 minutes in a 10 mM Tris/50 mM KCl buffer at pH 7.5 and then cooling to room temperature (to favor the intramolecular folding).
(§2) The buffer used was 10 mM Tris base (Fischer Scientific, Fairlawn, N.J.), 50 mM Potassium Chloride (Fischer Scientific, Fairlawn, N.J.), with the pH adjusted to 7.5 with Hydrochloric Acid (Fischer Scientific, Fairlawn, N.J.).
(§3) DNA folding and unfolding (melting) can be measured using absorbance at a constant wavelength of 260 nm for duplex DNA and 295 nm for quadruplex DNA while the temperature is increased, for example from 25° C. to 95° C. At these wavelengths, the resulting curves decrease in absorbance for quadruplex and increase for duplex DNA. Buffer solution and presence of DNA-binding compounds alter the Tm melting temperature, or midpoint between fully folded and unfolded. An increase in melting temperature in the presence of DNA-binding compounds indicates a stabilizing effect of the compound on the DNA structure.
(§4) The selectivity of a given cyanine for quadruplex DNA can be evaluated using thermal melting. The number in parentheses next to the compound number corresponds to the compound number in Schemes 1 and 2.
(§5) Thermal melting studies were also performed on compounds T4 and T5 (Scheme 2) and ZK-14 and SP-2-36.

[2] = system: HeLa cells; test: Trypan blue exclusion assay for cell viability, HeLa; assay type: cell-based; conditions: for Hela cells killed: after 24 h
Description: (§6) To evaluate the cytotoxic properties of the cyanines described herein, trypan blue exclusion assay for cell viability was performed on 10 compounds at two different concentrations (5 μM and 20 μM). To test the cancer selectivity of the dyes, the results were compared in a cancer cell line, HeLa and a non-cancerous cell line, HDF. The loss of membrane integrity in dead and dying cells allows preferential uptake of labels like trypan blue. At the end of the incubation times with the dyes, HeLa or HDF cells were pelleted and washed with PBS. Well-suspended cells were mixed with equal volume of 0.4% trypan blue in 1×PBS, pH 7.4, followed by incubation at room temperature for 5 min. Cells were examined under the microscope and blue-stained cells were considered non-viable.

[3] = Trypan blue exclusion assay for cell viability, HDF; assay type: cell-based; conditions: human, HDF cells (non-cancerous cell line); at the lower dose (5 μM); read-out: cell viability of normal cells (HDF)
Description: as §6

[4] = system: Duplex DNA; test: Thermal melting UV-Vis absorbance, duplex DNA; assay type: binding; conditions: for Change in Thermal Melting Points, Duplex, 1:1: ratio 1:1 (R); for Change in Thermal Melting Points, Duplex, 2:1: ratio 2:1 (R); for Change in Thermal Melting Points, Duplex, 4:1: ratio 4:1 (R); for Change in Thermal Melting Points, Duplex, 6:1: ratio 6:1 (R)
Description: as §1, §2, §3, §4, §5

[5] = system: Human Telomere (HT) quadruplex DNA; test: Fluorescence titration with human telomere quadruplex; assay type: binding; conditions: fluorescence intensity of bound ligand divided by that of free ligand
Description: (§7) Atoms absorb energy and can emit it as heat (vibrational relaxation), fast light emission (fluorescence), or slow light emission (phosphorescence). Most of the cyanines described herein fluoresce in response to near-infrared wavelengths of light absorption. As the cyanines bind to DNA, π-π stacking and hydrogen bonding is altered leading to a change in fluorescence emission. This change can be measured in direct correlation to DNA binding. In some cases an approximate binding constant can be determined from measuring fluorescence enhancement as DNA is titrated into a solution of fluorescent compound. Fluorescent enhancement, or the maximum emission divided by the minimum emission of the titration (compound saturated with DNA divided by free compound) at a fixed wavelength is useful to compare DNA affinity between a family of compounds.
(§8) A UV-Vis absorbance scan is first conducted to acquire the excitation wavelength. A 5 μM solution of compound in 1 mL, of Tris/K+ buffer is scanned from 800 nm to 200 nm at a rate of 60 nm/min with a 5 nm slit width. All DNAs are diluted in Tris/K+ buffer. The human telomere and c-Myc DNA are annealed into a quadruplex motif by heating at 95° C. in the presence of potassium ions in a hot water bath for approximately five minutes, then allowing the solution to slowly come to room temperature. In a fluorescence cell, an emission scan of 1 μM of compound in 1 mL of Tris Buffer is taken (Varian Cary Eclipse, Walnut Creek, Calif.) with appropriate parameters based on the excitation wavelength, an excitation slit width of 5 nm, and an emission slit width of 5 nm. Then 0.05 μM of DNA is titrated into the solution and scanned under the same conditions after each addition. The solution is titrated to saturation, at which the change in fluorescence intensity is nearly zero.
(§9) Due to the highly stabilized parallel quadruplex structure of c-Myc, thermal melting could not be considered for this sequence. Thus, fluorescence can be used to measure binding affinity towards the two quadruplex structures. […] Fluorescence enhancement, or the fluorescence intensity of the bound ligand divided by that of the free ligand, was considered in evaluating binding.

[6] = system: c-Myc quadruplex DNA; test: Fluorescence titration with c-Myc quadruplex; assay type: binding; conditions: fluorescence intensity of bound ligand divided by that of free ligand
Description: as §7, §8, §9

[7] = system: c-myc; test: Isothermal calorimetry, c-myc; assay type: binding; conditions: ITC, 25° C.
Description: (§10) DNA binding is dependent on enthalpy and entropy, components of the Gibbs free energy. Isothermal calorimetry measures the heat absorbed (endothermic binding) or released (exothermic binding) in binding at the μcalorie level. By examining the thermodynamics of different compounds, compounds can be analyzed to determine what factors favor quadruplex over duplex DNA binding. Enthalpy and binding constants are determined from measuring the heat change when compound is injected into a DNA solution, and the equations ΔG=ΔH−TΔS ΔG=−RT ln K are used to calculate entropy and Gibbs free energy.
(§11) Solutions of compound (0.2 mM) were injected 30 times into solutions of DNA (0.02 mM) on a VPC-ITC. All solutions were degasses at 25° C. for 15 minutes. TRIS/K^+ buffer was used in the reference cell. The injections were monitored at 25° C. with a reference power of 1 μcal/sec, an initial delay of 300 sec, and a stirring speed of 290. The first injection was 2 μL for 4 sec, with a spacing of 300 sec, and a filter period of 1 sec. The remaining 29 injections were 10 μL volume for a duration of 20 sec, with a spacing of 300 sec, and a filter period of 1 sec. The data was analyzed by VPViewer 2000 software.
(§12) Isothermal calorimetry (ITC) experiments were performed to test the SPR and fluorescence preference in binding c-myc over hTelo. […]

[8] = system: hTelo; test: Isothermal calorimetry, hTelo; assay type: binding, human; conditions: 25° C.
Description: as §10, §11, §12

[9] = system: A2T2; test: Isothermal calorimetry, A2T2; assay type: binding; conditions: 25° C.
Description: as §10, §11, §12

[10] = system: HDF cells; test: Trypan blue exclusion assay for cell viability, HDF; assay type: cell-based; conditions: at both concentrations; text also says lower concentrations (5-10 μM)
Description: as §6

| SMILES | Change in Thermal Melting Points, Human Telomere (HT), 1:1 [1] | Change in Thermal Melting Points, Human Telomere (HT), 2:1 [1] | Change in Thermal Melting Points, Human Telomere (HT), 4:1 [1] | Change in Thermal Melting Points, Human Telomere (HT), 6:1 [1] | Hela cells killed ([2]; 5 μM) [%] | Hela cells killed ([2]; 20 μM) [%] | viability at 5 µM [3] [%] | Selectivity for quadruplex over duplex DNA by thermal melting [1] | Change in Thermal Melting Points, Duplex, 1:1 [4] | Change in Thermal Melting Points, Duplex, 2:1 [4] | Change in Thermal Melting Points, Duplex, 4:1 [4] | Change in Thermal Melting Points, Duplex, 6:1 [4] | Fluorescence Enhancement, HT [5] | Fluorescence Enhancement, c-Myc [6] | K (M^−1), c-myc [7] [M⁻¹] | K (M^−1), hTelo ([8]; ITC) [M⁻¹] | ITC binding to A2T2 [9] | cell death, HDFs [10] [%] | ITC binding to hTelo [8] | Cytotoxicity to cancer cells ([2]; HeLa, both concentrations studied (5 μM and 20 μM)) |
| --- | --- | --- | --- | --- | --- | --- | --- | --- | --- | --- | --- | --- | --- | --- | --- | --- | --- | --- | --- | --- |
| CC1(C)C(/C=C/C(Br)=C/C=C2/N(CCC[N+](C)(C)C)c3ccc(I)cc3C2(C)C)=[N+](CCC[N+](C)(C)C)c2ccc(I)cc21 [A-161 (50)] | 4.1 | 9.2 | 16.2 | 21.7 | > 70 | > 70 | 100 |  |  |  |  |  |  |  |  |  |  |  |  |  |
| CC1(C)C(/C=C/C(Br)=C/C=C2\N(CCC[N+](C)(C)C)c3ccccc3C2(C)C)=[N+](CCC[N+](C)(C)C)c2ccccc21 [A-C8 (43)] | 2.0 | 4.6 | 11.6 | 15.6 |  |  |  | selectively bind to quadruplex DNA with little or no binding to duplex DNA | 0.0 | −1.1 | 0.9 | −0.2 | 1.66 | 3.46 | 802000 | 55700 | No binding | ~35 |  |  |
| CC1(C)C(/C=C/C=C2/N(CCC[N+](C)(C)C)c3ccc(Br)cc3C2(C)C)=[N+](CCC[N+](C)(C)C)c2ccc(Br)cc21 [MH5 (28)] | 1 | 5.2 | 14.2 | 23.7 |  |  |  | selectively bind to quadruplex DNA with little or no binding to duplex DNA | −0.1 | −1.0 | −1.0 | −0.1 | 1.6 | 4.65 | 1.19e+06 |  | No binding |  | Weak binding- unable to fit | highly cytotoxic to cancer cells |
